Test results from US20100184683A1, “ANTIBACTERIAL AND ANTIFUNGAL PEPTIDES” (C3 JIAN, INC., priority 2009, published 2010).
In brackets after ≈: the same amount, converted by molar mass. Read-outs that look alike come from different tables or passages of the source. Ends that are not written are not given here. Peptide text beside a SMILES is read from it.

Tests used:
[1] = system: E. coli; assay type: cell-based, Escherichia coli
Experimental: (§1) In certain embodiments the MIC assays are performed as described herein in the Examples. For each organism, the media and growth conditions utilized is detailed in Table 8.
(§2) In certain embodiments the MIC assays are performed as follows: For each organism, the media and growth conditions utilized is detailed in Table 8.

[2] = system: S. pneumoniae; assay type: cell-based, Streptococcus pneumoniae
Experimental: as §1, §2

[3] = system: A. naeslundii; assay type: cell-based, Actinomyces naeslundii
Experimental: as §1, §2

[4] = system: F. nucleatum; assay type: cell-based, Fusobacterium nucleatum
Experimental: as §1, §2

[5] = system: P. gingivalis; assay type: cell-based, Porphyromonas gingivalis
Experimental: as §1, §2

[6] = system: S. mutans; assay type: cell-based, Streptococcus mutans
Experimental: as §1, §2

[7] = system: MRSA; assay type: cell-based, Methicillin-resistant Staphylococcus aureus
Experimental: as §1, §2

[8] = system: S. epidermidis; assay type: cell-based
Experimental: as §1, §2

[9] = system: C. albicans; assay type: cell-based, Candida albicans
Experimental: as §1, §2

[10] = system: P. aeruginosa; assay type: cell-based, Pseudomonas aeruginosa
Experimental: as §1, §2

[11] = system: T. rubrum; assay type: cell-based, Trichophyton rubrum
Experimental: as §1, §2

[12] = system: M. furfur ATCC 14521; details: 5 μM peptide, after 15 min of treatment, 10^6 cells/ml, ATCC medium 1072, 30° C.
Experimental: FIG. 1. Killing kinetics of PF-S028 L and D versions against M. furfur were determined using standard time-kill methods previously detailed (Eckert et al. (2006) Antimicrob Agents Chemother., 50: 1480-1488). Briefly, a log phase culture of M. furfur ATCC 14521 was diluted to 10^6 cells/ml in ATCC medium 1072. To the reaction tubes 5 μM of either PF-S028 L or PF-S028 D were added. A reaction tube to which 4 μl of 50% methanol served as the negative control. Reaction tubes were stored at 30° C. and at indicated intervals an aliquot was removed from the reaction tube and placed in a recovery tube where peptide was removed by dilution. An aliquot from the recovery tube was plated on ATCC medium 1072 agar plates and incubated at 30° C. until visible colonies formed. Colony forming units were calculated for the negative control (no peptide), PF-S028 L, and PF-S028 D treated cultures.
In some cases killing kinetic experiments were then conducted. Killing kinetics of PF-S028 L and D versions against M. furfur were determined as described in Eckert et al. (2006) Antimicrob Agents Chemother., 50: 1480-1488. Briefly, a log phase culture of M. furfur ATCC 14521 was diluted to 10^6 cells/ml in ATCC medium 1072. To the reaction tubes 5 μM of either PF-S028 L or PF-S028 D were added. […] Colony forming units were calculated for the negative control (no peptide), PF-S028 L, and PF-S028 D treated cultures.

[13] = system: M. furfur; assay: MIC assay, M. furfur; assay type: cell-based, Malassezia furfur; details: ATCC medium 1072, 37° C., aerobic, inoculum 10^5 CFU/ml, 18-24 h or 48 h
Experimental: as §1, §2

[14] = system: B. subtilis; assay type: cell-based, Bacillus subtilis
Method in brief: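 Organism-specific media and growth conditions are used for MIC testing of every strain.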

[15] = system: C. jeikeium; assay: MIC assay, C. jeikeium; assay type: cell-based, Corynebacterium jeikium; details: TSB supplemented with 1% Tween-80, 37° C., aerobic, inoculum 10^6 CFU/ml, 18-24 h or 48 h
Experimental: as §1, §2

Molecule: TKKIELKRFVDAFVKKSYENYILERELKKLIKAINEELPTK [PF-600]
- MIC [1]: 50 µM
- MIC [2]: 50 µM

Molecule: CC[C@H](C)[C@H](NC(=O)[C@H](CCC(N)=O)NC(=O)[C@H](CCCCN)NC(=O)[C@H](CC(C)C)NC(=O)[C@H](CC(C)C)NC(=O)[C@@H]1CCCN1C(=O)[C@H](CCSC)NC(=O)[C@H](CC(C)C)NC(=O)[C@H](CO)NC(=O)[C@H](CCCCN)NC(=O)CNC(=O)[C@@H](N)CCCCN)C(=O)N[C@@H](CC(N)=O)C(=O)N[C@@H](CCC(N)=O)C(=O)N[C@@H](Cc1c[nH]c2ccccc12)C(=O)NCC(=O)N[C@@H](CCCCN)C(=O)N[C@@H](CC(C)C)C(=O)N[C@@H](Cc1ccc(O)cc1)C(=O)N[C@@H](CC(C)C)C(=O)O [PF-C239] (H-KGKSLMPLLKQINQWGKLYL-OH; N-terminus and C-terminus assumed)
- MIC [3]: 25 µM (≈ 59 µg/mL)
- MIC [4]: 50 µM (≈ 118 µg/mL)
- MIC [5]: 50 µM (≈ 118 µg/mL)
- MIC [6]: 50 µM (≈ 118 µg/mL)

Molecule: CC[C@H](C)[C@H](NC(=O)[C@H](CCCCN)NC(=O)CNC(=O)[C@H](CC(N)=O)NC(=O)[C@H](CCC(N)=O)NC(=O)[C@H](Cc1ccc(O)cc1)NC(=O)[C@H](C)NC(=O)[C@H](CCCCN)NC(=O)[C@H](C)NC(=O)[C@H](Cc1ccccc1)NC(=O)[C@H](CC(=O)O)NC(=O)[C@H](CCC(N)=O)NC(=O)[C@H](Cc1c[nH]cn1)NC(=O)[C@H](CO)NC(=O)[C@H](CC(N)=O)NC(=O)[C@H](Cc1ccccc1)NC(=O)[C@H](CO)NC(=O)[C@H](CC(C)C)NC(=O)[C@H](C)NC(=O)[C@@H](NC(=O)[C@H](CC(N)=O)NC(=O)[C@@H](NC(=O)[C@H](CCCCN)NC(=O)[C@H](CCCCN)NC(=O)[C@H](CCC(=O)O)NC(=O)[C@H](CCCCN)NC(=O)[C@H](CC(=O)O)NC(=O)[C@H](CC(C)C)NC(=O)[C@H](CCC(=O)O)NC(=O)[C@H](CCCCN)NC(=O)[C@H](CO)NC(=O)[C@H](C)NC(=O)[C@H](CC(N)=O)NC(=O)[C@H](CC(C)C)NC(=O)[C@@H](NC(=O)[C@H](CCCCN)NC(=O)[C@H](CO)NC(=O)[C@H](CCC(=O)O)NC(=O)[C@@H](N)Cc1ccccc1)[C@@H](C)CC)C(C)C)[C@@H](C)O)C(=O)O [PF-606] (H-FESKILNASKELDKEKKVNTALSFNSHQDFAKAYQNGKI-OH; N-terminus and C-terminus assumed)
- MIC [1]: 50 µM (≈ 222 µg/mL)
- MIC [2]: 50 µM (≈ 222 µg/mL)
- MIC [7]: 50 µM (≈ 222 µg/mL)
- MIC [6]: 50 µM (≈ 222 µg/mL)
- MIC [8]: 50 µM (≈ 222 µg/mL)

Molecule: CC[C@H](C)[C@H](NC(=O)[C@H](C)NC(=O)[C@H](CC(N)=O)NC(=O)[C@@H](NC(=O)[C@H](CC(C)C)NC(=O)[C@H](CCCNC(=N)N)NC(=O)[C@H](Cc1ccc(O)cc1)NC(=O)[C@@H](N)CC(N)=O)C(C)C)C(=O)N[C@@H](Cc1ccccc1)C(=O)N[C@@H](CO)C(=O)N[C@@H](CCCCN)C(=O)N[C@H](C(=O)N[C@@H](Cc1ccccc1)C(=O)N[C@@H](CCCCN)C(=O)N[C@@H](CCCCN)C(=O)N[C@@H](CCCCN)C(=O)N[C@@H](Cc1ccccc1)C(=O)N[C@H](C(=O)N[C@@H](CCCCN)C(=O)N[C@@H](Cc1ccccc1)C(=O)O)[C@@H](C)CC)[C@@H](C)CC [PF-C252] (H-NYRLVNAIFSKIFKKKFIKF-OH; N-terminus and C-terminus assumed)
- MIC [9]: 25 µM (≈ 62.6 µg/mL)
- MIC [3]: 25 µM (≈ 62.6 µg/mL)
- MIC [4]: 25 µM (≈ 62.6 µg/mL)
- MIC [10]: 50 µM (≈ 125 µg/mL)
- MIC [5]: 25 µM (≈ 62.6 µg/mL)
- MIC [7]: 50 µM (≈ 125 µg/mL)
- MIC [6]: 12.5 µM (≈ 31.3 µg/mL)
- MIC [8]: 25 µM (≈ 62.6 µg/mL)
- MIC [11]: 50 µM (≈ 125 µg/mL)

Molecule: CC[C@H](C)[C@H](NC(=O)[C@@H](NC(=O)[C@H](CO)NC(=O)CN)C(C)C)C(=O)N[C@@H](CCCCN)C(=O)N[C@@H](CCCCN)C(=O)N[C@@H](CCCNC(=N)N)C(=O)N[C@@H](CCCNC(=N)N)C(=O)N[C@@H](CCCCN)C(=O)N[C@@H](CCCNC(=N)N)C(=O)N[C@@H](CCSC)C(=O)N[C@@H](CO)C(=O)N[C@@H](CCCCN)C(=O)N[C@@H](CCCCN)C(=O)N[C@@H](CCCCN)C(=O)N[C@@H](Cc1c[nH]cn1)C(=O)N[C@@H](CCCNC(=N)N)C(=O)N[C@@H](CCCCN)C(=O)N[C@@H](CCSC)C(=O)N[C@@H](CC(C)C)C(=O)N[C@@H](CCCNC(=N)N)C(=O)N[C@@H](CCCNC(=N)N)C(=O)N[C@H](C(=O)N[C@@H](CCCNC(=N)N)C(=O)N[C@H](C(=O)N[C@@H](CCC(N)=O)C(=O)N[C@@H](CCCNC(=N)N)C(=O)N[C@@H](CCCNC(=N)N)C(=O)N[C@@H](CCCCN)C(=O)N[C@@H](CC(C)C)C(=O)NCC(=O)N[C@@H](CCCCN)C(=O)O)C(C)C)[C@@H](C)O [PF-S028 L]
- M. furfur killed [12]: 39%

Molecule: CC[C@H](C)[C@H](NC(=O)[C@@H](NC(=O)[C@H](CO)NC(=O)CN)C(C)C)C(=O)N[C@@H](CCCCN)C(=O)N[C@@H](CCCCN)C(=O)N[C@@H](CCCNC(=N)N)C(=O)N[C@@H](CCCNC(=N)N)C(=O)N[C@@H](CCCCN)C(=O)N[C@@H](CCCNC(=N)N)C(=O)N[C@@H](CCSC)C(=O)N[C@@H](CO)C(=O)N[C@@H](CCCCN)C(=O)N[C@@H](CCCCN)C(=O)N[C@@H](CCCCN)C(=O)N[C@@H](Cc1c[nH]cn1)C(=O)N[C@@H](CCCNC(=N)N)C(=O)N[C@@H](CCCCN)C(=O)N[C@@H](CCSC)C(=O)N[C@@H](CC(C)C)C(=O)N[C@@H](CCCNC(=N)N)C(=O)N[C@@H](CCCNC(=N)N)C(=O)N[C@H](C(=O)N[C@@H](CCCNC(=N)N)C(=O)N[C@H](C(=O)N[C@@H](CCC(N)=O)C(=O)N[C@@H](CCCNC(=N)N)C(=O)N[C@@H](CCCNC(=N)N)C(=O)N[C@@H](CCCCN)C(=O)N[C@@H](CC(C)C)C(=O)NCC(=O)N[C@@H](CCCCN)C(=O)O)C(C)C)[C@@H](C)O [PF-S028]
- MIC ([10]; P. aeruginosa, MH, 37° C., aerobic, inoculum 10^5 CFU/ml, 18-24 h or 48 h): 50 µM (≈ 202 µg/mL)
- MIC ([5]; P. gingivalis, Columbia broth, 37° C., anaerobic, inoculum 10^5 CFU/ml, 18-24 h or 48 h): 25 µM (≈ 101 µg/mL)
- MIC [13]: 2.5 µM (≈ 10.1 µg/mL)
- MIC ([7]; MRSA, BHI supplemented with 2% glucose, 37° C., aerobic, inoculum 10^5 CFU/ml, 18-24 h or 48 h): 50 µM (≈ 202 µg/mL)
- MIC ([6]; S. mutans, TH supplemented with 1% sucrose, 37° C., anaerobic, inoculum 10^5 CFU/ml, 18-24 h or 48 h): 50 µM (≈ 202 µg/mL)
- MIC ([8]; S. epidermidis, BHI supplemented with 0.25% glucose, 37° C., aerobic, inoculum 10^5 CFU/ml, 18-24 h or 48 h): 25 µM (≈ 101 µg/mL)
- MIC [14]: 12.5 µM (≈ 50.4 µg/mL)
- MIC ([11]; T. rubrum, Potato Dextrose Agar, 25° C., aerobic, inoculum 10^5 CFU/ml, 18-24 h or 48 h): 50 µM (≈ 202 µg/mL)
- MIC [15]: 6.25 µM (≈ 25.2 µg/mL)

Molecule: CC[C@@H](C)[C@@H](NC(=O)[C@H](NC(=O)[C@@H](CO)NC(=O)CN)C(C)C)C(=O)N[C@H](CCCCN)C(=O)N[C@H](CCCCN)C(=O)N[C@H](CCCNC(=N)N)C(=O)N[C@H](CCCNC(=N)N)C(=O)N[C@H](CCCCN)C(=O)N[C@H](CCCNC(=N)N)C(=O)N[C@H](CCSC)C(=O)N[C@H](CO)C(=O)N[C@H](CCCCN)C(=O)N[C@H](CCCCN)C(=O)N[C@H](CCCCN)C(=O)N[C@H](Cc1c[nH]cn1)C(=O)N[C@H](CCCNC(=N)N)C(=O)N[C@H](CCCCN)C(=O)N[C@H](CCSC)C(=O)N[C@H](CC(C)C)C(=O)N[C@H](CCCNC(=N)N)C(=O)N[C@H](CCCNC(=N)N)C(=O)N[C@@H](C(=O)N[C@H](CCCNC(=N)N)C(=O)N[C@@H](C(=O)N[C@H](CCC(N)=O)C(=O)N[C@H](CCCNC(=N)N)C(=O)N[C@H](CCCNC(=N)N)C(=O)N[C@H](CCCCN)C(=O)N[C@H](CC(C)C)C(=O)NCC(=O)N[C@H](CCCCN)C(=O)O)C(C)C)[C@H](C)O [PF-S028 D]
- M. furfur killed [12]: over 99%
